Data from ChEMBL document CHEMBL1134005, “2-Arylindole-3-acetamides: FPP-competitive inhibitors of farnesyl protein transferase” (Bioorg Med Chem Lett, 2001).

Assays:
[1] = biological target: T1, Protein farnesyltransferase (Homo sapiens, UniProt P49354+P49356); test: Concentration required for the inhibitory activity against human Farnesyltransferase; assay type: protein-complex assay
[2] = biological target: T1, Protein farnesyltransferase; test: Inhibition of HDJ-2 farnesylation in PSN-1 cells; assay type: functional, cell-based
[3] = biological target: T1, Protein farnesyltransferase; test: Inhibition of FPP incorporation into biotinylated K-Ras-derived peptide by human farnesyl transferase 5 nM ATP; assay type: functional
[4] = biological target: T1, Protein farnesyltransferase; test: (§1) Inhibition of FPP incorporation into biotinylated K-Ras-derived peptide by human farnesyl transferase with 5 nM ATP; assay type: functional
[5] = biological target: T1, Protein farnesyltransferase; test: (§2) Inhibition of FPP incorporation into biotinylated K-Ras-derived peptide by human farnesyl transferase; assay type: functional
[6] = biological target: T1, Protein farnesyltransferase; test: as §2; assay type: functional; remark: listed apart in the source
[7] = biological target: T1, Protein farnesyltransferase; test: as §2; assay type: functional; remark: listed apart in the source
[8] = biological target: T1, Protein farnesyltransferase; test: as §1; assay type: functional; remark: listed apart in the source
[9] = biological target: T1, Protein farnesyltransferase; test: as §1; assay type: functional; remark: listed apart in the source
[10] = biological target: T1, Protein farnesyltransferase; test: as §2; assay type: functional; remark: listed apart in the source
[11] = biological target: Geranylgeranyl transferase type I (Homo sapiens, UniProt P49354+P53609); test: Inhibitory activity against human Geranylgeranyl transferase type I; assay type: protein-complex assay
[12] = biological target: T1, Protein farnesyltransferase; test: as §2; assay type: functional; remark: listed apart in the source
[13] = biological target: T1, Protein farnesyltransferase; test: as §1; assay type: functional; remark: listed apart in the source
[14] = biological target: T1, Protein farnesyltransferase; test: Inhibition of HDJ-2 farnesylation in PSN-1 cells with 100 nM GGT1; assay type: functional, cell-based
[15] = biological target: T1, Protein farnesyltransferase; test: Inhibition of HDJ-2 farnesylation in PSN-1 cells at without GGT1; assay type: functional, cell-based
[16] = biological target: T1, Protein farnesyltransferase; test: Inhibition of K-Ras farnesylation in PSN-1 cells with 100 nM GGT1; assay type: functional, cell-based
[17] = biological target: T1, Protein farnesyltransferase; test: Inhibition of K-Ras farnesylation in PSN-1 cells without GGT1; assay type: functional, cell-based

Row | Structure (SMILES) | IC50 [1] [µM] | further results
1 | CCCCn1c(-c2ccccc2)c(CC(=O)N(Cc2ccncc2)C(C)C)c2ccccc21 | > 50 | 
2 | CC(C)N(Cc1ccncc1)C(=O)Cc1cn(Cc2cccc(Br)c2)c2ccccc12 | 2.15 | 
3 | CC(C)N(Cc1ccncc1)C(=O)Cc1cn(Cc2ccccc2Br)c2ccccc12 | 0.572 | 
4 | CC(C)N(Cc1ccncc1)C(=O)Cc1cn(Cc2ccc(Br)cc2)c2ccccc12 | 1.74 | 
5 | COc1ccccc1-c1[nH]c2ccccc2c1CC(=O)N(Cc1ccncc1)C(C)C | 1.37 | 
6 | O=C(Cc1c(-c2ccccc2)[nH]c2ccccc12)N(Cc1ccncc1)C1CCCC1 | 4 | 
7 | CC(C)N(Cc1ccncc1)C(=O)Cc1c(-c2ccc(Br)cc2)[nH]c2ccccc12 | 14.4 | 
8 | CC[C@@H](C)N(Cc1ccncc1)C(=O)Cc1c(-c2ccccc2)[nH]c2ccccc12 | 4.59 | 
9 | CC(C)N(Cc1ccncc1)C(=O)Cc1c[nH]c2ccccc12 | > 50 | 
10 | Cc1ccccc1-c1[nH]c2ccccc2c1CC(=O)N(CCC#N)C1CC1 | 0.712 | 
11 | CCn1c(-c2ccccc2)c(CC(=O)N(Cc2ccncc2)C(C)C)c2ccccc21 | 3.8 | 
12 | CC(C)CN(Cc1ccccn1)C(=O)Cc1c(-c2ccccc2)[nH]c2ccccc12 | 1.5 | 
13 | O=C(Cc1c(-c2ccccc2)[nH]c2ccccc12)N(Cc1cccnc1)Cc1cccnc1 | 2.73 | 
14 | CC(C)CN(Cc1cccnc1)C(=O)Cc1c(-c2ccccc2)[nH]c2ccccc12 | 2.48 | 
15 | CCCn1c(-c2ccccc2)c(CC(=O)N(Cc2ccncc2)C(C)C)c2ccccc21 | 29.9 | 
16 | CC(C)N(Cc1ccccn1)C(=O)Cc1c(-c2ccccc2)[nH]c2ccccc12 | 0.684 | 
17 | CC(C)N(Cc1ccn(C)n1)C(=O)Cc1c(-c2ccccc2)[nH]c2ccccc12 | 0.568 | 
18 | CC(C)N(Cc1cnn(C)c1)C(=O)Cc1c(-c2ccccc2)[nH]c2ccccc12 | 0.527 | 
19 | O=C(Cc1c(-c2ccccc2)[nH]c2ccccc12)N(Cc1cccnc1)C1CCCC1 | 11.4 | 
20 | N#CCCN(C(=O)Cc1c(-c2ccccc2Cl)[nH]c2ccccc12)C1CC1 | 1.63 | 

Now from value to compound, other results behind:

Row | IC50 [1] [µM] | Structure (SMILES) | further results
21 | 0.046 | CC(C)N(Cc1ccncc1)C(=O)Cc1c(-c2ccccc2Cl)[nH]c2ccccc12 | 
22 | 0.123 | N#CCCN(C(=O)Cc1c(-c2ccccc2)[nH]c2ccccc12)C1CC1 | 
23 | 0.172 | CC(C)N(Cc1ccncc1)C(=O)Cc1c(-c2cccc(Cl)c2)[nH]c2ccccc12 | 
24 | 0.16 | O=C(Cc1c(-c2ccccc2)[nH]c2ccccc12)N(Cc1ccncc1)C1CCC1 | 
25 | 0.38 | CC(C#N)N(Cc1cccnc1)C(=O)Cc1c(-c2ccccc2)[nH]c2ccccc12 (stereo not given) | 
26 | 0.031 | Cc1ccccc1-c1[nH]c2ccccc2c1CC(=O)N(Cc1ccncc1)C(C)C | 
27 | 0.045 | O=C(Cc1c(-c2ccccc2)[nH]c2ccccc12)N(Cc1cccnc1)C1CC1 | 
28 | 0.241 | CC(C)N(Cc1ccco1)C(=O)Cc1c(-c2ccccc2)[nH]c2ccccc12 | 
29 | 0.171 | O=C(Cc1c(-c2ccccc2)[nH]c2ccccc12)N(Cc1ccncc1)C1CC1 | 
30 | 0.077 | CC[C@H](C)N(Cc1ccncc1)C(=O)Cc1c(-c2ccccc2)[nH]c2ccccc12 | 
31 | 0.058 | CC(C)N(Cc1cccnc1)C(=O)Cc1c(-c2ccccc2)[nH]c2ccccc12 | 
32 | 0.4 | CC(C)N(Cc1cnccn1)C(=O)Cc1c(-c2ccccc2)[nH]c2ccccc12 | 
33 | 0.182 | Cn1c(-c2ccccc2)c(CC(=O)N(CCC#N)C2CC2)c2ccccc21 | 
34 | 0.044 | O=C(Cc1c(-c2ccccc2)[nH]c2ccccc12)N(Cc1cccnc1)C1CCC1 | 
35 | 0.012 | Cc1ccccc1-c1c(CC(=O)N(Cc2ccncc2)C(C)C)c2ccccc2n1C | EC50 [2]: 1.06 µM
36 | 0.041 | CC(C)N(Cc1ccncc1)C(=O)Cc1c(-c2ccccc2)[nH]c2ccccc12 | 
37 | 0.106 | CCN(Cc1ccncc1)C(=O)Cc1c(-c2ccccc2)[nH]c2ccccc12 | IC50 [3]: 0.02 µM; IC50 [4]: 0.19 µM; IC50 [5]: 0.054 µM; IC50 [6]: 0.23 µM; IC50 [7]: 4 µM; IC50 [8]: 0.043 µM; IC50 [9]: 0.065 µM; IC50 [10]: 0.23 µM; IC50 [11]: > 20 µM; IC50 [12]: 0.25 µM; IC50 [13]: 0.047 µM
38 | 0.015 | CC(C)N(Cc1ccncc1)C(=O)Cc1c(-c2ccccc2)n(C)c2ccccc12 | EC50 [2]: 1.33 µM; EC50 [14]: 1 µM; EC50 [15]: 1.98 µM; EC50 [16]: 1.8 µM; EC50 [17]: > 30 µM
39 | 0.245 | CC(C)N(Cc1ccnn1C)C(=O)Cc1c(-c2ccccc2)[nH]c2ccccc12 | 
40 | 0.11 | CC(C)N(Cc1ccoc1)C(=O)Cc1c(-c2ccccc2)[nH]c2ccccc12 | 
41 | 0.517 | N#Cc1ccc(Cn2cncc2CN2CCN(C(=O)NC34CC5CC(CC(C5)C3)C4)CC2)cc1 | IC50 [11]: 0.0002 µM
42 | 0.232 | CC(C)N(Cc1cncnc1)C(=O)Cc1c(-c2ccccc2)[nH]c2ccccc12 | 
